The numbers were not newly measured in patent US20260335448A1 (priority 2022, published 2026), which cites them from elsewhere.

Where two headings read alike, the source gives them in different places.

Data set [1] concerns dengue virus. As to conditions: in vitro.
Data set [2] deals with West Nile virus. As to conditions: in vitro.
The test system of data set [3] is Venezuelan equine encephalitis virus.
For data set [4], the system named is pseudorabies virus.
In data set [5] the test system is pseudorabies virus. As to conditions: in vivo.
For data set [6], the system named is SARS-COV-2-infected Vero/hSLAM cells. Particulars: in vitro, at high concentrations.
Data set [7] has as its system breast cancer. Particulars: in vitro.
In data set [8] the test system is colon cancer. As to conditions: in vitro.
Data set [9] has as its system gastric cancer. Particulars: in vitro.
Data set [10] concerns glioblastoma. Particulars: in vitro.
Data set [11] has as its system leukemia. Particulars: in vitro.
For data set [12], the system named is melanoma. As to conditions: in vitro.
For data set [13], the system named is ovarian cancer. As to conditions: in vitro.

As for ivermectin, the anti-viral activity result in [1] is “activity in vitro”; in [2], “activity in vitro”; in data set [3] it was “activity in vitro”; in data set [4], “activity in vitro”; in data set [5], “activity in vitro and in vivo”; in data set [6], “activity in vitro”. Also, the anti-tumor activity entry in data set [7], in [8], in data set [9], in [10], in data set [11] and in [12] was “activity in vitro” each time. In addition, in [13], the anti-tumor activity result was “activity in vitro”.
